The source made the active and inactive calls. No cut-off for these calls is given here.
Legend:
[1] = target: T1, Tyrosine-protein kinase JAK2 (Homo sapiens, UniProt O60674); assay: Inhibition of JAK2 (unknown origin) using FAM-labelled peptide and ATP at 100 nM measured after 25 mins incubation relative to control
Histone deacetylase 1 = Histone deacetylase 1 (Homo sapiens, UniProt Q13547); assay: Inhibition of recombinant human HDAC1 using (Ac-Leu-Gly-Lys(Ac)-AMC as substrate measured after 30 mins by fluorescence assay
HaCaT = assay: cells; conditions: Homo sapiens, 48 h
Description: Antiproliferative activity against human HaCAT cells assessed as inhibition of TNFalpha-induced proliferation measured after 48 hrs by CCK-8 assay

RAW264.7 [2] = assay: cells; assay type: functional; conditions: Mus musculus, time 24 hrs
Description: Antiinflammatory activity in mouse RAW264.7 cells assessed as inhibition of LPS-induced NO release at 0.4 uM incubated for 24 hrs relative to control

RAW264.7 [3] = assay: Antiinflammatory activity in mouse RAW264.7 cells assessed as inhibition of LPS-induced NO release at 0.20 uM incubated for 24 hrs relative to control; assay type: functional
RAW264.7 [4] = assay: Antiinflammatory activity in mouse RAW264.7 cells assessed as inhibition of LPS-induced NO release at 0.10 uM incubated for 24 hrs relative to control; assay type: functional
RAW264.7 [5] = assay: Antiinflammatory activity in mouse RAW264.7 cells assessed as inhibition of LPS-induced TNFalpha release at 0.9 uM incubated for 24 hrs by ELISA; assay type: functional, cell-based
RAW264.7 [6] = assay: Antiinflammatory activity in mouse RAW264.7 cells assessed as inhibition of LPS-induced IL-12 release at 0.9 uM incubated for 24 hrs by ELISA; assay type: functional, cell-based
RAW264.7 [7] = assay: Antiinflammatory activity in mouse RAW264.7 cells assessed as inhibition of LPS-induced IFN-gamma release at 0.9 uM incubated for 24 hrs by ELISA; assay type: functional, cell-based
[8] = target: T1, Tyrosine-protein kinase JAK2; assay: Inhibition of JAK2 (unknown origin) using FAM-labelled peptide and ATP measured after 25 mins incubation relative to control
[9] = target: T2, Tyrosine-protein kinase JAK3 (Homo sapiens, UniProt P52333); assay: Inhibition of JAK3 (unknown origin) using FAM-labelled peptide and ATP measured after 25 mins incubation relative to control
T2 sequence (P52333 whole entry): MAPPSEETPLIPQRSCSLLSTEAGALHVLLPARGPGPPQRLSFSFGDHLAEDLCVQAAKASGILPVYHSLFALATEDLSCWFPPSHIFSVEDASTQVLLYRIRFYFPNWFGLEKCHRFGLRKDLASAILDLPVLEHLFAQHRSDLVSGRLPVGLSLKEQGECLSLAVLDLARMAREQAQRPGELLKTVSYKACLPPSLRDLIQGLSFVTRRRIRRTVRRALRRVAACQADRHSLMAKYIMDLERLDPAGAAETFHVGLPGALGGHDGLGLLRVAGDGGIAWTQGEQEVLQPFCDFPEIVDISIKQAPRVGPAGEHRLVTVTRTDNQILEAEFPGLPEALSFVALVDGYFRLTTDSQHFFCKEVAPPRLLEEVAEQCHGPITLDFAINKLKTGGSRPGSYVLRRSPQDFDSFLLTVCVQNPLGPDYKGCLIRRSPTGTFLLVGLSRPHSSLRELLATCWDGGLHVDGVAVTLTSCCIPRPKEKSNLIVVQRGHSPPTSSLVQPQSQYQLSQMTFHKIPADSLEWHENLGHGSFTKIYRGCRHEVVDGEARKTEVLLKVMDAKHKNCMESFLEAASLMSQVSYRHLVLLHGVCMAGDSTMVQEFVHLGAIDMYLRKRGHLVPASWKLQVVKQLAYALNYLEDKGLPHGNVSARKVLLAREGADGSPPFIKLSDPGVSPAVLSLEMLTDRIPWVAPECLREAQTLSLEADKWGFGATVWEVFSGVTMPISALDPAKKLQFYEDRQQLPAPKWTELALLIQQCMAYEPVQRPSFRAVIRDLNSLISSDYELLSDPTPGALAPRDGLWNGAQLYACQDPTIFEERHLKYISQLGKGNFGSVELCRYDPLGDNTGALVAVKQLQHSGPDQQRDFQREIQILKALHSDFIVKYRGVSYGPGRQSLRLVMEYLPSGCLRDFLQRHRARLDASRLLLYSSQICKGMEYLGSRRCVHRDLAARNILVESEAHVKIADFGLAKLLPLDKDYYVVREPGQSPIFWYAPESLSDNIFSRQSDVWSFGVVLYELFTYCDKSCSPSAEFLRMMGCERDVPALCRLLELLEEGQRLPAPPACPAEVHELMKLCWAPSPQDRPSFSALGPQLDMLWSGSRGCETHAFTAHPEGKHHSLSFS

[10] = target: Non-receptor tyrosine-protein kinase TYK2 (Homo sapiens, UniProt P29597); assay: Inhibition of TYK2 (unknown origin) using FAM-labelled peptide and ATP measured after 25 mins incubation relative to control
Histone deacetylase 8 = target: T3, Histone deacetylase 8 (Homo sapiens, UniProt Q9BY41); assay: Inhibition of recombinant human HDAC8 using (Ac-Leu-Gly-Lys(Tfa)-AMC as substrate measured after 30 mins by fluorescence assay
T3 sequence (Q9BY41 whole entry): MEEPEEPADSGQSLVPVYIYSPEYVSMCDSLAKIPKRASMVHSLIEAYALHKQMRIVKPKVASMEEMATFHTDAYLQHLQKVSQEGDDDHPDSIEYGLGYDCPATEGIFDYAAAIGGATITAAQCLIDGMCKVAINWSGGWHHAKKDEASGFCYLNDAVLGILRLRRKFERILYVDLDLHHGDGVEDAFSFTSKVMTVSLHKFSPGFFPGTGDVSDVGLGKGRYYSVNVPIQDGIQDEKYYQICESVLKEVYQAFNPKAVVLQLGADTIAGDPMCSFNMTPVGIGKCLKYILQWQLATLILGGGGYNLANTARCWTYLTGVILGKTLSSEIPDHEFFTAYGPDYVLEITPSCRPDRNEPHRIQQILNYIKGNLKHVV

[11] = Metabolic stability of the compound in female ICR mouse liver microsomes assessed as half life at 1 uM measured up to 45 mins by LC-MS/MS analysis; assay type: ADME
[12] = Metabolic stability of the compound in female ICR mouse liver microsomes assessed as clearance at 1 uM measured up to 45 mins by LC-MS/MS analysis; assay type: ADME; conditions: read-out: CLH
Mus musculus [13] = assay: Antipsoriatic activity against imiquimod-induced psoriasis BALB/c mouse model assessed as improvement in psoriatic symptom at 0.5 % applied topically back of the mouse for 7 consecutive days; assay type: functional, organism-based; conditions: route top
Mus musculus [14] = assay: Antipsoriatic activity against imiquimod-induced psoriasis BALB/c mouse model assessed as reduction in skin thickness at 0.5 % applied topically back of the mouse for 7 consecutive days by hematoxylin and eosin staining based histological analysis; assay type: functional, organism-based; conditions: route top
Mus musculus [15] = assay: Antipsoriatic activity against imiquimod-induced psoriasis BALB/c mouse model assessed as reduction in skin thickness at 0.25 % applied topically back of the mouse for 7 consecutive days by hematoxylin and eosin staining based histological analysis; assay type: functional, organism-based; conditions: route top
[16] = Antiproliferative activity against human LO2 cells; assay type: toxicity, cell-based, L02
[17] = target: Platelet-derived growth factor receptor alpha (Homo sapiens) (UniProt P16234); assay: Inhibition of PDGFRalpha (unknown origin) at 10 nM relative to control
Mus musculus [18] = assay: Antipsoriatic activity against imiquimod-induced psoriasis BALB/c mouse model assessed as improvement in psoriatic symptom at 0.25 to 0.5 % applied topically back of the mouse for 7 consecutive days; assay type: functional, organism-based; conditions: dose 0.25-0.5 %, route top
Mus musculus [19] = assay: Antipsoriatic activity against imiquimod-induced psoriasis BALB/c mouse model assessed as improvement in psoriatic symptom at 0.25 % applied topically back of the mouse for 7 consecutive days; assay type: functional, organism-based; conditions: route top
Mus musculus [20] = assay: Antipsoriatic activity against imiquimod-induced psoriasis BALB/c mouse model assessed as reduction in epidermal thickness applied topically back of the mouse for 7 consecutive days by hematoxylin and eosin staining based histological analysis; assay type: functional, organism-based; conditions: dose 0.25-0.5 %, route top
[21] = Antiproliferative activity against HUVEC cells; conditions: human
[22] = Acute toxicity in BALB/c mouse assessed as animal death at 7508 mg/kg; assay type: organism-based; conditions: in vivo
[23] = Acute toxicity in BALB/c mouse assessed as animal death; conditions: in vivo

T1 sequence (O60674 whole entry): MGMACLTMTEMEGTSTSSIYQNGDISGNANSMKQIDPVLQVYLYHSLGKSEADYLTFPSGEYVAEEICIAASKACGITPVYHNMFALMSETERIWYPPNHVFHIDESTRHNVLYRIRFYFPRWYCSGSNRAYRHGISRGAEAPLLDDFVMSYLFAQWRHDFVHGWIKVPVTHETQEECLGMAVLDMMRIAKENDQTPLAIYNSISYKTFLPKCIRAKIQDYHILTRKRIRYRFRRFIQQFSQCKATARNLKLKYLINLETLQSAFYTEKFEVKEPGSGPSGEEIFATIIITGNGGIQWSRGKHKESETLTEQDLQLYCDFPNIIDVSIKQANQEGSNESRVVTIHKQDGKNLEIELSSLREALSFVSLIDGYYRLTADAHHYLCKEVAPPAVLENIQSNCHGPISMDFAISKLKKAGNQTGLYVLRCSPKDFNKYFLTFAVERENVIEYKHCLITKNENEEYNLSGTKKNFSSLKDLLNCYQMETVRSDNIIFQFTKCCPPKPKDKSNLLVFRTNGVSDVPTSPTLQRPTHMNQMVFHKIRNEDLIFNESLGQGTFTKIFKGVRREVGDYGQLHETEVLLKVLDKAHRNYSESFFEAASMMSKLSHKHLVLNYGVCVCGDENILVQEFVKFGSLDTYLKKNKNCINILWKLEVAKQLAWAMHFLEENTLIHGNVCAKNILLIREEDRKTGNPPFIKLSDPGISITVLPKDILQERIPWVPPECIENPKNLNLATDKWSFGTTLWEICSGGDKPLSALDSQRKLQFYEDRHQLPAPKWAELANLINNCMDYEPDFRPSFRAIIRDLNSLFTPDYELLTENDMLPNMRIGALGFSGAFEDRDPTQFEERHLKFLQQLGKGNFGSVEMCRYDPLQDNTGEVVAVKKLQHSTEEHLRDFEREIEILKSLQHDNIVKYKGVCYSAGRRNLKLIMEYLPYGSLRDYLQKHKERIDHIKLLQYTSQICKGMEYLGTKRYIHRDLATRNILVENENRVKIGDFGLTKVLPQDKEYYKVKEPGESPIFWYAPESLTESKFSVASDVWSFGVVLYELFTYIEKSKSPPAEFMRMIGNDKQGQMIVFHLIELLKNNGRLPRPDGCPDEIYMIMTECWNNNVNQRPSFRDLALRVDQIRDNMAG
Chain of Histone deacetylase 1 (Q13547 whole entry): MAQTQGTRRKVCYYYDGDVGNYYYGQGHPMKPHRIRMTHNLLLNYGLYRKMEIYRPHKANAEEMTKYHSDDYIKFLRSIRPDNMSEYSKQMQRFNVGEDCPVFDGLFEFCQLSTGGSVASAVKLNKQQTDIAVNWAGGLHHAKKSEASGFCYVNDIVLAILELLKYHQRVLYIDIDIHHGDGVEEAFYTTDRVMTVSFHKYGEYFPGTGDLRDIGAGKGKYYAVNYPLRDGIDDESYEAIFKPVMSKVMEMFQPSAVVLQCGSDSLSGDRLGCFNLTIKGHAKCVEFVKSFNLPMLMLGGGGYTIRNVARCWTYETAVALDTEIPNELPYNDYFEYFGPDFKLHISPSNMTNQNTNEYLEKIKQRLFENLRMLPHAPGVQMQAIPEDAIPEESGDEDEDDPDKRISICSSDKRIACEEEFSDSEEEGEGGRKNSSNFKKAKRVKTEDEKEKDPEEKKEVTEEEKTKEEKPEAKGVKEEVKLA
Chain of Non-receptor tyrosine-protein kinase TYK2 (P29597 whole entry): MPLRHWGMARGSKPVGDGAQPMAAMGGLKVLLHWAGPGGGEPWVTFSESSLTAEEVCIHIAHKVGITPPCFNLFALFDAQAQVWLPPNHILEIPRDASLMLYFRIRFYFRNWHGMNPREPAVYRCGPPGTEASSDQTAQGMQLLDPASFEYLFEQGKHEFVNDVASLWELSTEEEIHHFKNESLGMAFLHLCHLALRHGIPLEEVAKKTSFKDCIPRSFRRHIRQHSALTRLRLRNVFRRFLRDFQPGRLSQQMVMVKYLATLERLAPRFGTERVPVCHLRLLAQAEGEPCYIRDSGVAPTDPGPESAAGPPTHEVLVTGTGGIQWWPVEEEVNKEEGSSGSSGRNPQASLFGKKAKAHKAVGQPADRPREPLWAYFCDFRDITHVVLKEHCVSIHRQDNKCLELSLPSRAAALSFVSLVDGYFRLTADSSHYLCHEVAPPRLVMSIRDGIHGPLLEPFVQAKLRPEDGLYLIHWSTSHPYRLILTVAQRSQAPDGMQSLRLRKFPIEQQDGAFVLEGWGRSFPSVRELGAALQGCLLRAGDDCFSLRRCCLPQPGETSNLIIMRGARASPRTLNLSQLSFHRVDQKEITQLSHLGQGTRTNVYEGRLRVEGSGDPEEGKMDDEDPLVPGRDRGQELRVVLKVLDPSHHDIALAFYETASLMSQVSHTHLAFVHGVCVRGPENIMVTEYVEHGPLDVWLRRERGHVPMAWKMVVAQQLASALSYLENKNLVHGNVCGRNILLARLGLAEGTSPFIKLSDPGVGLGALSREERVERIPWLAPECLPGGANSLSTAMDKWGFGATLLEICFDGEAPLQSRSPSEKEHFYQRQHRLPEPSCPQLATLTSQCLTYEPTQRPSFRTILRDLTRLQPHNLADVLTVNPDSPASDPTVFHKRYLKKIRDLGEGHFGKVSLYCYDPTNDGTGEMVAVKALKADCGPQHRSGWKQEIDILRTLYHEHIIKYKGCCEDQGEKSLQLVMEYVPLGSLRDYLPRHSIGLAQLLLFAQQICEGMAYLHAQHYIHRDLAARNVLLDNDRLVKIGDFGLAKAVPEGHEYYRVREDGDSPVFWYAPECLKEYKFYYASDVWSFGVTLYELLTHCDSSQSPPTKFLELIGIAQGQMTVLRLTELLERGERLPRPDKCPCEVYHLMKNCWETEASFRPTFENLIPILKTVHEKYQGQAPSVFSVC
Chain of Platelet-derived growth factor receptor alpha (Homo sapiens) (P16234 whole entry): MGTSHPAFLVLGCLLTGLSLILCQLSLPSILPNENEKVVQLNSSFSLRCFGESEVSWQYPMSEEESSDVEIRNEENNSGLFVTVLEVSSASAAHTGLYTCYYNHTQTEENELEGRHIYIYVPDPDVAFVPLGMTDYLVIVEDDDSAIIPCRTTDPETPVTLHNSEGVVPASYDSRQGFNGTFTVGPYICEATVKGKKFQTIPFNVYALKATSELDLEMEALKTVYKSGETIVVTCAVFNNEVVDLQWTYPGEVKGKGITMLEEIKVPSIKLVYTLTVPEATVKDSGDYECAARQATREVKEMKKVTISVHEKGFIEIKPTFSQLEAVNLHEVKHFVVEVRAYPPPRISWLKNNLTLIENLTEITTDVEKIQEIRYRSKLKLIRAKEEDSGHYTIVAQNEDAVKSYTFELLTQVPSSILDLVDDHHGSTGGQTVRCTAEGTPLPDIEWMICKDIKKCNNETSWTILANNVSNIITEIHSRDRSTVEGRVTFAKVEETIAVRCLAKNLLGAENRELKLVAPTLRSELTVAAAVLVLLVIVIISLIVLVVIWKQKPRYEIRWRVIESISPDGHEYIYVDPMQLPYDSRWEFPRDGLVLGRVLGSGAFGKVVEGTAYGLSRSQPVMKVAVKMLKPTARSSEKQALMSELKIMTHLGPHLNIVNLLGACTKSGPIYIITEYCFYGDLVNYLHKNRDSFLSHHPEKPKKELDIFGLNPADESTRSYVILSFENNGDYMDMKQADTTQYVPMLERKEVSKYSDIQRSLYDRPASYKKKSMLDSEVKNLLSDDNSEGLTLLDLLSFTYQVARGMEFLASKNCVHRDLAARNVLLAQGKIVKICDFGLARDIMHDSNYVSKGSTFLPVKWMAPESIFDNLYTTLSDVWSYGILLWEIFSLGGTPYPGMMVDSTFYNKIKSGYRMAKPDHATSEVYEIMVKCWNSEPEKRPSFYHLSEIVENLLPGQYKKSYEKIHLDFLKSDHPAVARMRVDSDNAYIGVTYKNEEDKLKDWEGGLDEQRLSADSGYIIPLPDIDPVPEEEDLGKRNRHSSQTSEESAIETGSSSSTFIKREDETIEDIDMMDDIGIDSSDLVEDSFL

| SMILES | inhibition [1] [%] | IC50 (HaCaT) [µM] | inhibition at 0.4 µM (RAW264.7 [2]) [%] | further results |
| --- | --- | --- | --- | --- |
| CS(=O)(=O)Nc1ccc(-c2ccnc(Nc3ccc(-c4cn(CC(=O)NO)nn4)cc3)n2)cc1 | 99 | > 50 | – | IC50 (Histone deacetylase 1): > 2 µM |
| CS(=O)(=O)Nc1ccc(-c2ccnc(Nc3ccc(N4CCN(CC(=O)Nc5ccc(/C=C/C(=O)NO)cc5)CC4)cc3)n2)cc1 | 99 | – | 110 | inhibition at 0.2 µM (RAW264.7 [3]): 105%; inhibition at 0.1 µM (RAW264.7 [4]): 82.1%; Activity (RAW264.7 [5]): Active; Activity (RAW264.7 [6]): Active; Activity (RAW264.7 [7]): Active; IC50 [8]: 0.00072 µM; IC50 [9]: 0.0079 µM; IC50 [10]: 0.0044 µM; IC50 (Histone deacetylase 8): > 1 µM; half-life at 1 µM [11]: 56.3 min; CLint scaled at 1 µM [12]: 5.85 L/h/kg; Activity (Mus musculus [13]): Active; Activity (Mus musculus [14]): Active; Activity (Mus musculus [15]): Active; IC50 [16]: 5 µM |
| CS(=O)(=O)Nc1ccc(-c2ccnc(Nc3ccc(-c4cn(CC(=O)NCCCCCCC(=O)NO)nn4)cc3)n2)cc1 | 99 | > 50 | – | – |
| CS(=O)(=O)Nc1ccc(-c2ccnc(Nc3ccc(N4CCN(CC(=O)Nc5ccc(C(=O)NO)cc5)CC4)cc3)n2)cc1 | 99 | 1.2 | 105 | inhibition at 0.2 µM (RAW264.7 [3]): 105%; inhibition at 0.1 µM (RAW264.7 [4]): 105%; Activity (RAW264.7 [5]): Active; Activity (RAW264.7 [6]): Active; Activity (RAW264.7 [7]): Active; IC50 [8]: 0.00049 µM; IC50 [9]: 0.0056 µM; IC50 [10]: 0.0026 µM; inhibition [17]: > 50%; half-life at 1 µM [11]: 39.8 min; CLint scaled at 1 µM [12]: 8.27 L/h/kg; Activity (Mus musculus [18]): Active; Activity (Mus musculus [19]): Active; Compound Showed Better Activity Than 11G And Vorinostat/Momelotinib Control; Activity (Mus musculus [15]): Active; Activity (Mus musculus [20]): Dose-dependent-effect; IC50 [21]: 10 µM; Activity [22]: Non-toxic; LD50 [23]: > 7510 mg/kg |
| N#CCNC(=O)c1ccc(-c2ccnc(Nc3ccc(N4CCOCC4)cc3)n2)cc1 [MOMELOTINIB] | – | 13 | 94.8 | IC50 (Histone deacetylase 1): 0.04 µM; IC50 [21]: 7.3 µM |
| CS(=O)(=O)Nc1ccc(-c2ccnc(Nc3ccc(-c4cn(CC(=O)NCCCCCC(=O)NO)nn4)cc3)n2)cc1 | 98 | > 50 | – | – |
| C[C@@H]1CCN(C(=O)CC#N)C[C@@H]1N(C)c1ncnc2[nH]ccc12 [TOFACITINIB] | – | > 50 | – | – |
| CS(=O)(=O)Nc1ccc(-c2ccnc(Nc3ccc(N4CCN(CC(=O)NCCCCC(=O)NO)CC4)cc3)n2)cc1 | 98 | 16 | – | – |
| CS(=O)(=O)Nc1ccc(-c2ccnc(Nc3ccc(-c4cn(CC(=O)Nc5ccc(C(=O)NO)cc5)nn4)cc3)n2)cc1 | 98 | > 50 | – | IC50 (Histone deacetylase 1): > 2 µM |
| CS(=O)(=O)Nc1ccc(-c2ccnc(Nc3ccc(-c4cn(CC(=O)NCCC(=O)NO)nn4)cc3)n2)cc1 | 97 | > 50 | – | – |
| CS(=O)(=O)Nc1ccc(-c2ccnc(Nc3ccc(-c4cn(CC(=O)NCCCCCCCC(=O)NO)nn4)cc3)n2)cc1 | – | > 50 | – | – |
| CS(=O)(=O)Nc1ccc(-c2ccnc(Nc3ccc(N4CCN(CC(=O)NCCC(=O)NO)CC4)cc3)n2)cc1 | 99 | > 50 | – | IC50 (Histone deacetylase 1): > 2 µM |
| CS(=O)(=O)Nc1ccc(-c2ccnc(Nc3ccc(N4CCN(CC(=O)NCCCCCC(=O)NO)CC4)cc3)n2)cc1 | 99 | 9.6 | – | – |
| CS(=O)(=O)Nc1ccc(-c2ccnc(Nc3ccc(N4CCN(CC(=O)NCCCCCCC(=O)NO)CC4)cc3)n2)cc1 | 99 | 5.3 | 73.9 | – |
| CS(=O)(=O)Nc1ccc(-c2ccnc(Nc3ccc(N4CCN(CC(=O)NCCCC(=O)NO)CC4)cc3)n2)cc1 | 100 | 17 | – | – |
| CS(=O)(=O)Nc1ccc(-c2ccnc(Nc3ccc(-c4cn(CC(=O)NCCCCC(=O)NO)nn4)cc3)n2)cc1 | 98 | > 50 | – | – |
| CS(=O)(=O)Nc1ccc(-c2ccnc(Nc3ccc(N4CCN(CC(=O)NO)CC4)cc3)n2)cc1 | 99 | 10 | – | IC50 (Histone deacetylase 1): > 2 µM |
| CS(=O)(=O)Nc1ccc(-c2ccnc(Nc3ccc(N4CCN(CC(=O)Nc5ccc(C(=O)NO)s5)CC4)cc3)n2)cc1 | 99 | 1.4 | 82.1 | – |
| CS(=O)(=O)Nc1ccc(-c2ccnc(Nc3ccc(-c4cn(CC(=O)NCCCC(=O)NO)nn4)cc3)n2)cc1 | 99 | > 50 | – | – |
| CS(=O)(=O)Nc1ccc(-c2ccnc(Nc3ccc(N4CCN(CC(=O)NCCCCCCCC(=O)NO)CC4)cc3)n2)cc1 | 100 | 10 | 71.3 | – |

— ChEMBL document CHEMBL6078632, “Discovery of Janus Kinase and Histone Deacetylase Dual Inhibitors as a New Strategy to Treat Psoriasis” (J Med Chem, 2024)
